According to patent US8802597B2, “Herbicidal pyrimidines” (E I du Pont de Nemours and Company, priority 2003, dated 2014):

Experiments:
Type in all cases: in vivo
[1] = test system: redroot pigweed (Amaranthus retroflexus); assay: Test A pre/postemergence
Outline: (§1)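 Pre/post greenhouse screen; loam/sand soil; solvent + surfactant formulation; pre = directed soil spray at planting, post = 1–2 leaf plants, 2–10 cm; ~10 d; visual 0–100 rating vs untreated.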

[2] = test system: morningglory (Ipomoea spp.); assay: Test A pre/postemergence
Outline: as §1

[3] = test system: giant foxtail (Setaria faberi); assay: Test A pre/postemergence
Outline: as §1

[4] = test system: velvetleaf (Abutilon theophrasti); assay: Test A pre/postemergence
Outline: as §1

[5] = test system: barnyardgrass (Echinochloa crus-galli); assay: Test A pre/postemergence
Outline: as §1

[6] = test system: crabgrass (Digitaria sanguinalis); assay: Test A pre/postemergence
Outline: as §1

[7] = test system: early watergrass (Echinochloa oryzoides); assay: Test E flooded paddy water application; settings: Flood, 21 days, scale 0 to 100 (0 no effect, 100 complete control)
Outline: (§2)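 Weeds sown in sterilized Tama silt loam (2.6% organic matter), greenhouse 29.5/26.7° C, 16-h photoperiod; at 2.0–2.5-leaf stage pots flooded to 3 cm and compound added to paddy water. Visual rating vs untreated controls after 21 days, 0 (no effect) to 100 (complete control).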

[8] = test system: bearded (brdd.) sprangletop (Leptochloa fusca ssp. fascicularis); assay: Test E flooded paddy water application; settings: Flood, 21 days, scale 0 to 100 (0 no effect, 100 complete control)
Outline: as §2

[9] = test system: water seeded rice seedlings (Oryza sativa cv. ‘Japonica-M202’); assay: Test E flooded paddy water application; settings: Flood, 21 days, scale 0 to 100 (0 no effect, 100 complete control)
Outline: as §2

[10] = test system: ducksalad (Heteranthera limosa); assay: Test E flooded paddy water application; settings: Flood, 21 days, scale 0 to 100 (0 no effect, 100 complete control)
Outline: as §2

[11] = test system: late watergrass (Echinochloa oryzicola); assay: Test E flooded paddy water application; settings: Flood, 21 days, scale 0 to 100 (0 no effect, 100 complete control)
Outline: as §2

[12] = test system: purple redstem (Ammannia coccinea); assay: Test E flooded paddy water application; settings: Flood, 21 days, scale 0 to 100 (0 no effect, 100 complete control)
Outline: as §2

[13] = test system: smallflower umbrella sedge (Cyperus difformis); assay: Test E flooded paddy water application; settings: Flood, 21 days, scale 0 to 100 (0 no effect, 100 complete control)
Outline: as §2

[14] = test system: junglerice (Echinochloa colona); assay: Test E flooded paddy water application; settings: Flood, 21 days, scale 0 to 100 (0 no effect, 100 complete control)
Outline: as §2

[15] = test system: barnyardgrass (Echinochloa crus-galli); assay: Test E flooded paddy water application; settings: Flood, 21 days, scale 0 to 100 (0 no effect, 100 complete control)
Outline: as §2

[16] = test system: transplanted rice seedlings (Oryza sativa cv. ‘Japonica-M202’); assay: Test E flooded paddy water application; settings: Flood, 21 days, scale 0 to 100 (0 no effect, 100 complete control)
Outline: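 Greenhouse pots of Tama silt loam with weeds and rice at 2.0–2.5-leaf stage, flooded to 3 cm; compounds applied directly into paddy water, depth maintained. Visual rating versus untreated controls after 21 days, 0 (no effect) to 100 (complete control); 29.5/26.7 °C, 16-h photoperiod.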

[17] = test system: rice flatsedge (Cyperus iria); assay: Test E flooded paddy water application; settings: Flood, 21 days, scale 0 to 100 (0 no effect, 100 complete control)
Outline: as §2

[18] = Postemergence, 125 g ai/ha, 0 to 100 scale (0 no effect, 100 complete control)
[19] = Postemergence, 500 g ai/ha, 0 to 100 scale (0 no effect, 100 complete control)
[20] = Preemergence, 125 g ai/ha, 0 to 100 scale where 0 is no effect and 100 is complete control, approximately ten days
[21] = Preemergence, 500 g ai/ha, 0 to 100 scale where 0 is no effect and 100 is complete control, approximately ten days

CCOC(=O)c1nc(-c2ccc(C)c(C)c2)nc(N)c1Br [Compound 70]
20: Plant response rating, Pigweed [1, 19] | Plant response rating, Velvetleaf [4, 20] | Plant response rating, Crabgrass [6, 19] | Plant response rating, Crabgrass [6, 21]
100: Ducksalad plant response rating ([10]; 64 g ai/ha) | Ducksalad plant response rating ([10]; 125 g ai/ha) | Ducksalad plant response rating ([10]; 250 g ai/ha)
60: Plant response rating, Velvetleaf [4, 19] | Sedge, Umbrella plant response rating ([13]; 250 g ai/ha)
40: Ducksalad plant response rating ([10]; 32 g ai/ha)
5: Plant response rating, Foxtail, Giant [3, 20] | Plant response rating, Foxtail, Giant [3, 21] | Plant response rating, Crabgrass [6, 20]
15: Plant response rating, Pigweed [1, 18]
30: Flatsedge, Rice plant response rating ([17]; 125 g ai/ha)
0: Plant response rating, Pigweed [1, 20] | Plant response rating, Morningglory [2, 18] | Plant response rating, Morningglory [2, 20] | Plant response rating, Morningglory [2, 21] | Plant response rating, Foxtail, Giant [3, 18] | Plant response rating, Foxtail, Giant [3, 19] | Plant response rating, Barnyardgrass [5, 18] | Plant response rating, Barnyardgrass [5, 19] | Plant response rating, Barnyardgrass [5, 20] | Plant response rating, Barnyardgrass [5, 21] | Plant response rating, Crabgrass [6, 18] | Watergrass, Early plant response rating ([7]; 32 g ai/ha) | Watergrass, Early plant response rating ([7]; 64 g ai/ha) | Watergrass, Early plant response rating ([7]; 125 g ai/ha) | Watergrass, Early plant response rating ([7]; 250 g ai/ha) | Plant response rating, Watergrass, Early ([7]; 16 g ai/ha) | Sprangletop, Brdd. plant response rating ([8]; 32 g ai/ha) | Sprangletop, Brdd. plant response rating ([8]; 64 g ai/ha) | Sprangletop, Brdd. plant response rating ([8]; 125 g ai/ha) | Sprangletop, Brdd. plant response rating ([8]; 250 g ai/ha) | Plant response rating, Sprangletop, Brdd. ([8]; 16 g ai/ha) | Rice, Water Seeded plant response rating ([9]; 32 g ai/ha) | Rice, Water Seeded plant response rating ([9]; 64 g ai/ha) | Rice, Water Seeded plant response rating ([9]; 125 g ai/ha) | Rice, Water Seeded plant response rating ([9]; 250 g ai/ha) | Plant response rating, Rice, Water Seeded ([9]; 16 g ai/ha) | Plant response rating, Ducksalad ([10]; 16 g ai/ha) | Watergrass, Late plant response rating ([11]; 32 g ai/ha) | Watergrass, Late plant response rating ([11]; 64 g ai/ha) | Watergrass, Late plant response rating ([11]; 125 g ai/ha) | Watergrass, Late plant response rating ([11]; 250 g ai/ha) | Plant response rating, Watergrass, Late ([11]; 16 g ai/ha) | Redstem plant response rating ([12]; 32 g ai/ha) | Redstem plant response rating ([12]; 64 g ai/ha) | Redstem plant response rating ([12]; 125 g ai/ha) | Redstem plant response rating ([12]; 250 g ai/ha) | Plant response rating, Redstem ([12]; 16 g ai/ha) | Sedge, Umbrella plant response rating ([13]; 32 g ai/ha) | Sedge, Umbrella plant response rating ([13]; 64 g ai/ha) | Sedge, Umbrella plant response rating ([13]; 125 g ai/ha) | Plant response rating, Sedge, Umbrella ([13]; 16 g ai/ha) | Junglerice plant response rating ([14]; 32 g ai/ha) | Junglerice plant response rating ([14]; 64 g ai/ha) | Junglerice plant response rating ([14]; 125 g ai/ha) | Junglerice plant response rating ([14]; 250 g ai/ha) | Plant response rating, Junglerice ([14]; 16 g ai/ha) | Barnyardgrass plant response rating ([15]; 32 g ai/ha) | Barnyardgrass plant response rating ([15]; 64 g ai/ha) | Barnyardgrass plant response rating ([15]; 125 g ai/ha) | Barnyardgrass plant response rating ([15]; 250 g ai/ha) | Plant response rating, Barnyardgrass ([15]; 16 g ai/ha) | Rice, Transplanted plant response rating ([16]; 32 g ai/ha) | Rice, Transplanted plant response rating ([16]; 64 g ai/ha) | Rice, Transplanted plant response rating ([16]; 125 g ai/ha) | Rice, Transplanted plant response rating ([16]; 250 g ai/ha) | Plant response rating, Rice, Transplanted ([16]; 16 g ai/ha) | Flatsedge, Rice plant response rating ([17]; 32 g ai/ha) | Flatsedge, Rice plant response rating ([17]; 64 g ai/ha) | Plant response rating, Flatsedge, Rice ([17]; 16 g ai/ha)
65: Flatsedge, Rice plant response rating ([17]; 250 g ai/ha)
10: Plant response rating, Pigweed [1, 21] | Plant response rating, Morningglory [2, 19]
35: Plant response rating, Velvetleaf [4, 18] | Plant response rating, Velvetleaf [4, 21]
